In patent US20110045101A1, “FUNGICIDAL SUBSTITUTED AZOLES” (E.I. Du Pont De Nemours and Company, priority 2009, published 2011):
Marks after values point to notes of the source that are not given here.

Key:
Format in all cases: in vivo
Details in all cases: 100 = 100% disease control
Botrytis cinerea = test: Test C: tomato Botrytis on tomato seedlings, sprayed the day before inoculation, visual disease rating
Outline: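 Tomato seedlings sprayed to run-off with compound suspended in acetone/water with 250 ppm Trem 014 surfactant, at 200 ppm (≈500 g/ha) or 40 ppm where marked, one day before Botrytis cinerea inoculation. Disease rated visually.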

Alternaria solani = test: Test D: tomato early blight, sprayed the day before inoculation, visual disease rating
Outline: (§1)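 Compounds were dissolved in acetone (3% of final volume), then suspended in 50/50 acetone/water with 250 ppm Trem 014 surfactant and sprayed to run-off on test plants. A 200 ppm suspension equals 500 g/ha. Ratings are at 200 ppm unless flagged as 40 ppm.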

Septoria nodorum = test: Test F: wheat glume blotch on wheat seedlings, sprayed the day before inoculation, visual disease rating
Outline: as §1

Septoria tritici = test: Test G: wheat leaf blotch on wheat seedlings, sprayed the day before inoculation, visual disease rating
Outline: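 Spray to run-off, 200 ppm (≈500 g/ha; starred = 40 ppm), acetone/water 50/50 + 250 ppm Trem® 014. Spore inoculation +1 d. 24° C saturated 48 h → 20° C 19 d. Visual rating.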

[1] = tested on: Puccinia recondita f. sp. tritici; test: Test H: wheat leaf rust, test suspension sprayed after inoculation of wheat seedlings, visual disease rating
Outline: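 Wheat seedlings inoculated with P. recondita spores, held 24 h saturated at 20 °C, then 2 days in growth chamber at 20 °C; compound suspension (acetone/water with Trem 014) sprayed to run-off afterwards. Rated visually; 200 ppm (≈500 g/ha) unless marked *, which denotes 40 ppm.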

[2] = tested on: Puccinia recondita f. sp. tritici; test: Test I: wheat leaf rust on wheat seedlings, sprayed the day before inoculation, visual disease rating
Outline: as §1

[3] = tested on: Erysiphe graminis f. sp. tritici; test: Test J: wheat powdery mildew on wheat seedlings, sprayed the day before inoculation, visual disease rating
Outline: as §1

[4] = 200 ppm, 0 = no control relative to controls

| Compound | Test C disease control rating (Botrytis cinerea; 40 ppm (marked *)) | Test D disease control rating (Alternaria solani; 40 ppm (marked *)) | Test F disease control rating (Septoria nodorum; 40 ppm (marked *)) | Test G disease control rating (Septoria tritici; 40 ppm (marked *)) | Test H disease control rating ([1]; 40 ppm (marked *)) | Test I disease control rating ([2]; 40 ppm (marked *)) | Test J disease control rating ([3]; 40 ppm (marked *)) | Test C disease control rating (Botrytis cinerea; [4]) | Test D disease control rating (Alternaria solani; [4]) | Test F disease control rating (Septoria nodorum; [4]) | Test G disease control rating (Septoria tritici; [4]) | Test H disease control rating [1, 4] | Test I disease control rating [2, 4] | Test J disease control rating [3, 4] |
| --- | --- | --- | --- | --- | --- | --- | --- | --- | --- | --- | --- | --- | --- | --- |
| Cc1nc(Cl)n(-c2c(F)cccc2F)c1-c1ccc(Cl)cc1 [compound 466] | 99* % | 100* % | 0* % | 82* % | 0* % | 93* % | 100* % | – | – | – | – | – | – | – |
| COCc1nc(Cl)n(-c2c(F)cccc2F)c1-c1ccc(Cl)cc1 [compound 467] | 94* % | 0* % | 0* % | 32* % | 0* % | 71* % | 96* % | – | – | – | – | – | – | – |
| Cc1nc(Cl)c(-c2c(F)cccc2F)n1-c1ccc2ncccc2c1 [compound 468] | 99* % | 99* % | 0* % | 96* % | 0* % | 91* % | 58* % | – | – | – | – | – | – | – |
| Fc1cccc(F)c1-c1c(Cl)nc(CCl)n1-c1ccc2c(c1)OCCO2 [compound 469] | 65* % | 0* % | 0* % | 79* % | 0* % | 81* % | 0* % | – | – | – | – | – | – | – |
| Cc1nc(Cl)c(-c2c(F)cccc2F)n1-c1ccc2c(c1)OCCO2 [compound 470] | 99* % | 99* % | 0* % | 92* % | 0* % | 99* % | 87* % | – | – | – | – | – | – | – |
| COc1ccc(F)c(-c2c(Br)nc(Br)n2-c2ccc(Cl)cc2)c1F [compound 471] | – | – | – | – | – | – | – | 100% | 100% | 100% | 97% | 0% | 98% | 100% |
| COc1ccc(F)c(-c2c(Br)nc(Cl)n2-c2ccc(F)cc2)c1F [compound 472] | – | – | – | – | – | – | – | 100% | 100% | 100% | 96% | 80% | 100% | 100% |
| COc1ccc(F)c(-c2c(Br)ncn2-c2ccc(C)cc2)c1F [compound 473] | – | – | – | – | – | – | – | 99% | 100% | 0% | 97% | 0% | 100% | 100% |
| COc1cc(F)c(-n2nnc(Br)c2-c2ccc(Cl)cc2)c(F)c1 [compound 474] | – | – | – | – | – | – | – | 99% | 57% | 0% | 90% | 0% | 36% | 95% |
| COc1cc(OC)cc(-n2c(Cc3ccc(F)cc3F)cnc2C)c1 [compound 476] | – | – | – | – | – | – | – | 0% | 0% | 0% | 59% | 0% | 78% | 47% |
| COc1cc(OC)c(Br)c(-n2c(C)nc(Br)c2Cc2ccc(F)cc2F)c1Br [compound 477] | – | – | – | – | – | – | – | 9% | 0% | 0% | 0% | 0% | 75% | 0% |
| COc1cc(F)c(-n2nnc(Cl)c2-c2ccc(Cl)cc2)c(F)c1 [compound 478] | – | – | – | – | – | – | – | 100% | 93% | 0% | 93% | 0% | 96% | 97% |
| CCc1ccc(-n2c(C)nc(Cl)c2-c2c(F)ccc(OC)c2F)cc1 [compound 479] | – | – | – | – | – | – | – | 100% | 100% | 95% | 94% | 0% | 99% | 100% |
| Cc1nc(Cl)c(-c2c(F)ccc(F)c2F)n1-c1ccc(Cl)c(Cl)c1 [compound 480] | – | – | – | – | – | – | – | 100% | 100% | 95% | 96% | 0% | 99% | 100% |
| COc1ccc(F)c(-c2c(Cl)nc(Cl)n2-c2ccc(Cl)cc2)c1Cl [compound 481] | – | – | – | – | – | – | – | 100% | 100% | 99% | 95% | 0% | 97% | 100% |
| COc1ccc(Cl)c(-c2c(Cl)ncn2-c2ccc(Cl)cc2)c1F [compound 482] | – | – | – | – | – | – | – | 99% | 99% | 69% | 95% | 0% | 91% | 99% |
| COc1cc(F)c(-c2c(Cl)nc(Br)n2-c2cccc(Cl)c2)c(F)c1 [compound 483] | – | – | – | – | – | – | – | 100% | 99% | 0% | 94% | 32% | 98% | 100% |
| COc1cc(F)c(-c2c(Cl)nc(Br)n2-c2ccc(F)c(F)c2)c(F)c1 [compound 484] | – | – | – | – | – | – | – | 100% | 100% | 89% | 95% | 28% | 100% | 100% |
| Fc1cc(-n2c(Cl)nc(Cl)c2-c2ccnc(Br)c2)ccc1Cl [compound 485] | – | – | – | – | – | – | – | 96% | 88% | 0% | 95% | 0% | 98% | 98% |
| Fc1cc(-n2c(Cl)nc(Cl)c2-c2cncc(Br)c2)ccc1Cl [compound 486] | – | – | – | – | – | – | – | 66% | 0% | 0% | 0% | 0% | 14% | 0% |
| Fc1cc(-n2c(Cl)nc(Cl)c2-c2ccc(Br)cn2)ccc1Cl [compound 487] | – | – | – | – | – | – | – | 96% | 0% | 0% | 88% | 0% | 78% | 0% |
